Measurements as given in publication PMC12155096 (International Journal of Molecular Sciences, 2025).

These molecules were tested against CYP3A4 (Homo sapiens, UniProt P08684) (assay: biochemical). Conditions: not given; call rule not given here.
Chain of CYP3A4 (P08684 whole entry): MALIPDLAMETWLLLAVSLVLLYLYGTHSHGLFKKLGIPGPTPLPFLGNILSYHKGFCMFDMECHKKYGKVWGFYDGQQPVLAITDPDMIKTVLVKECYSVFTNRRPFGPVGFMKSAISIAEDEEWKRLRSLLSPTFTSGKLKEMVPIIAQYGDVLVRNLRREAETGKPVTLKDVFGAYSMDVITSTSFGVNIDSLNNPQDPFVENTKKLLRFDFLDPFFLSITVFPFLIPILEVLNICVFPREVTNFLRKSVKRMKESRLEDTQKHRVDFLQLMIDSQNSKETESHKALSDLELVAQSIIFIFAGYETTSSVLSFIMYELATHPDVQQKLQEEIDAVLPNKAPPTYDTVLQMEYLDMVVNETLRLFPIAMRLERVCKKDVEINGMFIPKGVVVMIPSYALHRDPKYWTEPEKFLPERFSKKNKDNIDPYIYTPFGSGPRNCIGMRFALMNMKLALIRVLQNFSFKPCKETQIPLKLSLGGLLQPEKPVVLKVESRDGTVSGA
In the case of `O=C(OCCc1ccccc1)c1ccccc1` [2-Phenylethyl benzoate], the AC50 is reported as 7.51 µM. Work on `O=C(c1ccccc1)c1ccc(Cl)cc1` [4-Chlorobenzophenone] yielded an AC50 of 35.6 µM. Work on `CCCCOC(=O)CCCCC(=O)OCCCC` [Dibutyl hexanedioate] yielded an AC50 of 15.4 µM. In the case of `CCC1OCC(COc2ccc(Oc3ccccc3)cc2)O1` (centres unmarked) [Diofenolan], the AC50 is reported as 35.7 µM. In the case of `CCCOC(=O)c1ccc(C(=O)OCCC)nc1` [Dipropyl 2,5-pyridinedicarboxylate], the AC50 is reported as 31.9 µM. `CCOC(=O)Cc1cccc2ccccc12` [Ethyl 1-naphthaleneacetate] showed an AC50 of 27.5 µM. `CCOC(=O)COC(=O)c1ccccc1C(=O)OCC` [Ethyl phthalyl ethyl glycolate] gave an AC50 of 47.4 µM.

Same assay, conditions: CYP3A4 AC50 (half-maximal activity concentration)
Work on `CCCCCCC(C=O)=Cc1ccccc1` [2-Benzylideneoctanal] yielded an AC50 of 7.81 µM. With `O=[N+]([O-])c1ccccc1-c1ccccc1` [2-Nitro-1,1'-biphenyl] the AC50 was 34.3 µM. `Nc1cc(Cl)cc(Cl)c1` [3,5-Dichloroaniline] showed an AC50 of 43.2 µM. `O=C(C=Cc1ccccc1)OCC=Cc1ccccc1` [3-Phenyl-2-propen-1-yl 3-phenylacrylate] was tested, and the AC50 was 24.9 µM. For `Brc1ccc(Oc2ccc(Br)cc2)cc1` [4,4'-Dibromodiphenyl ether], the AC50 was 28.4 µM. In the case of `O=C(c1ccc(Cl)cc1)c1ccc(Cl)cc1` [4,4'-Dichlorobenzophenone], the AC50 is reported as 11 µM. Work on `O=C(/C=C/c1ccccc1)OCc1ccccc1` [Benzyl cinnamate] yielded an AC50 of 21.5 µM. `O=[N+]([O-])C(Br)(CO)CO` [Bronopol] was tested, and the AC50 was 5.19 µM. `CC(C)N(Cc1ccccc1)C(=O)C(C)(C)C` [Butam] showed an AC50 of 9.61 µM.

These molecules were tested against human CYP2D6 (Homo sapiens, UniProt P10635) (assay: not given). Conditions: not given.
Chain of human CYP2D6 (P10635 whole entry): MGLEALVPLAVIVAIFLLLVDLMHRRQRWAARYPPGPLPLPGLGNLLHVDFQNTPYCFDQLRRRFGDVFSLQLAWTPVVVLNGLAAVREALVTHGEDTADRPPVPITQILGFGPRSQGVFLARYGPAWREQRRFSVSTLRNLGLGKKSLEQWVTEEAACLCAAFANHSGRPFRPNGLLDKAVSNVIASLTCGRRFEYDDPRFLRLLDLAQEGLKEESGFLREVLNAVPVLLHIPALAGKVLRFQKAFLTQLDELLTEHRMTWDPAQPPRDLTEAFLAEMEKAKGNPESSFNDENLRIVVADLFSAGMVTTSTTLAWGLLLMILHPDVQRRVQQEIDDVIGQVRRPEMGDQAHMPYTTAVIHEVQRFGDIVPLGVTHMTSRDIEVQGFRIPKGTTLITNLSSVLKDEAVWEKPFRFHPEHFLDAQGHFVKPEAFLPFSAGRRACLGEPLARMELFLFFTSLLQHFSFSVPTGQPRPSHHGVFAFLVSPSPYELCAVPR
With `CCCCCCC(C=O)=Cc1ccccc1` [2-Benzylideneoctanal] the “CYP2D6 AC50 (half-maximal activity concentration)” value (“CYP2D6 AC50” for short) was “Inactive”. With `O=[N+]([O-])c1ccccc1-c1ccccc1` [2-Nitro-1,1'-biphenyl] the “CYP2D6 AC50” value was “Inactive”. With `O=C(OCCc1ccccc1)c1ccccc1` [2-Phenylethyl benzoate] the “CYP2D6 AC50” value was “Inconclusive inhibitor”. `Nc1cc(Cl)cc(Cl)c1` [3,5-Dichloroaniline] was tested, and the “CYP2D6 AC50” value was “Inactive”. For `O=C(C=Cc1ccccc1)OCC=Cc1ccccc1` [3-Phenyl-2-propen-1-yl 3-phenylacrylate], the “CYP2D6 AC50” value was “Inactive”. For `Brc1ccc(Oc2ccc(Br)cc2)cc1` [4,4'-Dibromodiphenyl ether], the “CYP2D6 AC50” value was “Inactive”. `O=C(c1ccc(Cl)cc1)c1ccc(Cl)cc1` [4,4'-Dichlorobenzophenone] was tested, and the “CYP2D6 AC50” value was “Inactive”. In the case of `O=C(c1ccccc1)c1ccc(Cl)cc1` [4-Chlorobenzophenone], the “CYP2D6 AC50” value is reported as “Inconclusive inhibitor”. `O=C(/C=C/c1ccccc1)OCc1ccccc1` [Benzyl cinnamate] was tested, and the “CYP2D6 AC50” value was “Inactive”. `O=[N+]([O-])C(Br)(CO)CO` [Bronopol] was tested, and the “CYP2D6 AC50” value was “Inactive”. In the case of `CC(C)N(Cc1ccccc1)C(=O)C(C)(C)C` [Butam], the “CYP2D6 AC50” value is reported as “Inactive”. For `CCCCOC(=O)CCCCC(=O)OCCCC` [Dibutyl hexanedioate], the “CYP2D6 AC50” value was “Inactive”. With `CCC1OCC(COc2ccc(Oc3ccccc3)cc2)O1` (centres unmarked) [Diofenolan] the “CYP2D6 AC50” value was “Inconclusive inhibitor”. `CCCOC(=O)c1ccc(C(=O)OCCC)nc1` [Dipropyl 2,5-pyridinedicarboxylate] was tested, and the “CYP2D6 AC50” value was “Inactive”. In the case of `CCOC(=O)Cc1cccc2ccccc12` [Ethyl 1-naphthaleneacetate], the “CYP2D6 AC50” value is reported as “Inactive”. `CCOC(=O)COC(=O)c1ccccc1C(=O)OCC` [Ethyl phthalyl ethyl glycolate] was tested, and the “CYP2D6 AC50” value was “Inactive”.

The molecules below were run against human CYP2C19 (Homo sapiens, UniProt P33261) (assay: biochemical). Conditions: not given.
Chain of human CYP2C19 (P33261 whole entry): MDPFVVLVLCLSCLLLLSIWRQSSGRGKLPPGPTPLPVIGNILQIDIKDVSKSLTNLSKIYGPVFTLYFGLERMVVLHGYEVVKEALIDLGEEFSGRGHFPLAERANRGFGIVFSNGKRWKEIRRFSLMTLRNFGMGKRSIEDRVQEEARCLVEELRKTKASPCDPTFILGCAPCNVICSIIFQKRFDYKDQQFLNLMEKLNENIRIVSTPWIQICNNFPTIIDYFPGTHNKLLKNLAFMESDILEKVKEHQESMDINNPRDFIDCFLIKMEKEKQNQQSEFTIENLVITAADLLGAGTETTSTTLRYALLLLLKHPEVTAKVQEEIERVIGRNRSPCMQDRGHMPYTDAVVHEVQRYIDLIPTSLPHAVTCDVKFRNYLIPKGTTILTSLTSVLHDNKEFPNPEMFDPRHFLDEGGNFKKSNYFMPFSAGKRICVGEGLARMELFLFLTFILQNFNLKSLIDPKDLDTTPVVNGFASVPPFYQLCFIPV
In the case of `O=C(OCCc1ccccc1)c1ccccc1` [2-Phenylethyl benzoate], the AC50 is reported as 13.5 µM. Work on `O=C(c1ccccc1)c1ccc(Cl)cc1` [4-Chlorobenzophenone] yielded an AC50 of 14.7 µM. `CCCCOC(=O)CCCCC(=O)OCCCC` [Dibutyl hexanedioate] gave an AC50 of 57.6 µM. `CCC1OCC(COc2ccc(Oc3ccccc3)cc2)O1` (centres unmarked) [Diofenolan] was tested, and the AC50 was 21 µM. `CCCOC(=O)c1ccc(C(=O)OCCC)nc1` [Dipropyl 2,5-pyridinedicarboxylate] showed an AC50 of 5.97 µM. Molecule `CCOC(=O)Cc1cccc2ccccc12` [Ethyl 1-naphthaleneacetate] has an AC50 of 25.5 µM. With `CCOC(=O)COC(=O)c1ccccc1C(=O)OCC` [Ethyl phthalyl ethyl glycolate] the AC50 was 20.8 µM.

Same assay, conditions: CYP2C19 AC50 (half-maximal activity concentration)
With `CCCCCCC(C=O)=Cc1ccccc1` [2-Benzylideneoctanal] the AC50 was 25.6 µM. Work on `O=[N+]([O-])c1ccccc1-c1ccccc1` [2-Nitro-1,1'-biphenyl] yielded an AC50 of 30.4 µM. For `Nc1cc(Cl)cc(Cl)c1` [3,5-Dichloroaniline], the AC50 was 17.7 µM. With `O=C(C=Cc1ccccc1)OCC=Cc1ccccc1` [3-Phenyl-2-propen-1-yl 3-phenylacrylate] the AC50 was 31.8 µM. In the case of `Brc1ccc(Oc2ccc(Br)cc2)cc1` [4,4'-Dibromodiphenyl ether], the AC50 is reported as 3.02 µM. `O=C(c1ccc(Cl)cc1)c1ccc(Cl)cc1` [4,4'-Dichlorobenzophenone] showed an AC50 of 1.67 µM. `O=C(/C=C/c1ccccc1)OCc1ccccc1` [Benzyl cinnamate] gave an AC50 of 13.6 µM. `O=[N+]([O-])C(Br)(CO)CO` [Bronopol] showed an AC50 of 5.81 µM. Molecule `CC(C)N(Cc1ccccc1)C(=O)C(C)(C)C` [Butam] has an AC50 of 15.1 µM.

Each molecule was assayed against T1, human CYP1A2 (Homo sapiens, UniProt P05177) (assay: biochemical). Conditions: not given.
T1 sequence (P05177 1-516): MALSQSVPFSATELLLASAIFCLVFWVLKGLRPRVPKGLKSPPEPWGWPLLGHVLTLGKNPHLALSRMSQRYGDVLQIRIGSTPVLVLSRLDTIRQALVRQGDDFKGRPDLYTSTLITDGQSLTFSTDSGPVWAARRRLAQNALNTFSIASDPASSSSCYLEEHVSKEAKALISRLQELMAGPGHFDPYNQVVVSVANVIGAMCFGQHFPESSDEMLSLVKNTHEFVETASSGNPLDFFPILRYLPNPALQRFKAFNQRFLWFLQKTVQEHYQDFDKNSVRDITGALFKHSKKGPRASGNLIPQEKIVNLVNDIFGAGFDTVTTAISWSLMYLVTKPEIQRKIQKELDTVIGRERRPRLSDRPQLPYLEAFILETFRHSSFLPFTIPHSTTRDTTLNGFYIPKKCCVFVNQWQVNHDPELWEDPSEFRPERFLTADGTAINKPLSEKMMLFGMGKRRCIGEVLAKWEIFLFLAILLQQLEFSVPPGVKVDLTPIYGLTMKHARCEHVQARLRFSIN
`O=C(OCCc1ccccc1)c1ccccc1` [2-Phenylethyl benzoate] gave an AC50 of 17.1 µM. `O=C(c1ccccc1)c1ccc(Cl)cc1` [4-Chlorobenzophenone] was tested, and the AC50 was 3.84 µM. Work on `CCCCOC(=O)CCCCC(=O)OCCCC` [Dibutyl hexanedioate] yielded an AC50 of 41.7 µM. For `CCC1OCC(COc2ccc(Oc3ccccc3)cc2)O1` (centres unmarked) [Diofenolan], the AC50 was 30.8 µM. `CCCOC(=O)c1ccc(C(=O)OCCC)nc1` [Dipropyl 2,5-pyridinedicarboxylate] was tested, and the AC50 was 11.3 µM. `CCOC(=O)Cc1cccc2ccccc12` [Ethyl 1-naphthaleneacetate] gave an AC50 of 16.5 µM. For `CCOC(=O)COC(=O)c1ccccc1C(=O)OCC` [Ethyl phthalyl ethyl glycolate], the AC50 was 7.68 µM.

Same assay, conditions: CYP1A2 AC50 (half-maximal activity concentration)
With `CCCCCCC(C=O)=Cc1ccccc1` [2-Benzylideneoctanal] the AC50 was 13.8 µM. Work on `O=[N+]([O-])c1ccccc1-c1ccccc1` [2-Nitro-1,1'-biphenyl] yielded an AC50 of 1.66 µM. For `Nc1cc(Cl)cc(Cl)c1` [3,5-Dichloroaniline], the AC50 was 30.7 µM. `O=C(C=Cc1ccccc1)OCC=Cc1ccccc1` [3-Phenyl-2-propen-1-yl 3-phenylacrylate] was tested, and the AC50 was 25.3 µM. With `Brc1ccc(Oc2ccc(Br)cc2)cc1` [4,4'-Dibromodiphenyl ether] the AC50 was 18.8 µM. `O=C(c1ccc(Cl)cc1)c1ccc(Cl)cc1` [4,4'-Dichlorobenzophenone] was tested, and the AC50 was 2.34 µM. In the case of `O=C(/C=C/c1ccccc1)OCc1ccccc1` [Benzyl cinnamate], the AC50 is reported as 7.8 µM. `O=[N+]([O-])C(Br)(CO)CO` [Bronopol] showed an AC50 of 14.2 µM. In the case of `CC(C)N(Cc1ccccc1)C(=O)C(C)(C)C` [Butam], the AC50 is reported as 32.6 µM.

What follows are molecules tested against human CYP2C9 (Homo sapiens, UniProt P11712) (assay: biochemical). Conditions: not given.
Chain of human CYP2C9 (P11712 whole entry): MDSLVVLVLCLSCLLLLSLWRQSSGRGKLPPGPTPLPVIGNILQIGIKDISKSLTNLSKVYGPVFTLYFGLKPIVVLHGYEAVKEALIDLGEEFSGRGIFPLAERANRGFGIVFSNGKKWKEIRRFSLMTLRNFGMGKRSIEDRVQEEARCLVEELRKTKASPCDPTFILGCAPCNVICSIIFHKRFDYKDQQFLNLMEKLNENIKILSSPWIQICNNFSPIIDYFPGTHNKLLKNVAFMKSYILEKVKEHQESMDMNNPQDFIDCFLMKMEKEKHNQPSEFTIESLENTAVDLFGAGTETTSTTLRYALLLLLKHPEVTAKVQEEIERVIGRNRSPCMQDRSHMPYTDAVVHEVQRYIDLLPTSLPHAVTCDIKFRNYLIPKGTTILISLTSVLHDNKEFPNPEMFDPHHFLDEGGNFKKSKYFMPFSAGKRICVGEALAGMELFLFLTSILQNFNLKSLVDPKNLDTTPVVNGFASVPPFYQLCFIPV
For `O=C(OCCc1ccccc1)c1ccccc1` [2-Phenylethyl benzoate], the AC50 was 30.6 µM. `O=C(c1ccccc1)c1ccc(Cl)cc1` [4-Chlorobenzophenone] gave an AC50 of 50 µM. For `CCCCOC(=O)CCCCC(=O)OCCCC` [Dibutyl hexanedioate], the AC50 was 16.1 µM. In the case of `CCC1OCC(COc2ccc(Oc3ccccc3)cc2)O1` (centres unmarked) [Diofenolan], the AC50 is reported as 29.4 µM. `CCCOC(=O)c1ccc(C(=O)OCCC)nc1` [Dipropyl 2,5-pyridinedicarboxylate] showed an AC50 of 7.68 µM. Work on `CCOC(=O)Cc1cccc2ccccc12` [Ethyl 1-naphthaleneacetate] yielded an AC50 of 41.5 µM. For `CCOC(=O)COC(=O)c1ccccc1C(=O)OCC` [Ethyl phthalyl ethyl glycolate], the AC50 was 31.9 µM.

Same assay, conditions: CYP2C9 AC50 (half-maximal activity concentration)
In the case of `CCCCCCC(C=O)=Cc1ccccc1` [2-Benzylideneoctanal], the AC50 is reported as 31.1 µM. `O=[N+]([O-])c1ccccc1-c1ccccc1` [2-Nitro-1,1'-biphenyl] gave an AC50 of 22.6 µM. With `Nc1cc(Cl)cc(Cl)c1` [3,5-Dichloroaniline] the AC50 was 74.5 µM. Work on `O=C(C=Cc1ccccc1)OCC=Cc1ccccc1` [3-Phenyl-2-propen-1-yl 3-phenylacrylate] yielded an AC50 of 29.4 µM. For `Brc1ccc(Oc2ccc(Br)cc2)cc1` [4,4'-Dibromodiphenyl ether], the AC50 was 24.6 µM. Molecule `O=C(c1ccc(Cl)cc1)c1ccc(Cl)cc1` [4,4'-Dichlorobenzophenone] has an AC50 of 6.1 µM. `O=C(/C=C/c1ccccc1)OCc1ccccc1` [Benzyl cinnamate] was tested, and the AC50 was 12.4 µM. `O=[N+]([O-])C(Br)(CO)CO` [Bronopol] gave an AC50 of 4.61 µM. `CC(C)N(Cc1ccccc1)C(=O)C(C)(C)C` [Butam] gave an AC50 of 34.3 µM.
